System: C57BL/6 mice
Experiment: In vivo toxicity in C57BL/6 mice (body weight, serum cytokines, liver and kidney function, H&E)
Set-up: species or system mouse
Details: for Body weight: C57BL/6 mice, 6 days, MTOB 400 and 800, NSC95397 2 and 4, C646 5 and 10, A-485 40 and 80, TPCA1 10 and 20, BOT64 30 and 60 mg/kg
Method: Whole blood samples were allowed to stand undisturbed at room temperature for 15 min before being centrifuged at 1,000 × g for 10 min. The supernatant serum and BALF were used to measure concentrations of IL-1β, IL-6, IL-15, IL-18, and TNF-α with specific enzyme-linked immunosorbent assay (ELISA) kits as per manufacturer guidelines. The ELISA kits used were: IL-1β (Thermo Fisher; #KMC0011), IL-6 (Thermo Fisher; #KMC0061), IL-15 (Abcam; Shanghai, China; #ab275898), IL-18 (Thermo Fisher; #BMS618-3), and TNF-α (Thermo Fisher; #BMS607-3). Total BALF protein levels were measured using the BCA Protein Assay Kit (Abcam; #ab102536) according to the manufacturer’s protocol.
Serum activities or levels of alanine aminotransferase (ALT), aspartate aminotransferase (AST), alkaline phosphatase (ALP), blood urea nitrogen (BUN), and creatinine were measured using commercially available assay kits, including the ALT Activity Assay Kit (Abcam; #ab105134), AST Activity Assay Kit (Abcam; #ab105135), ALP Assay Kit (Abcam; #ab83369), BUN Colorimetric Detection Kit (Thermo Fisher; #EIABUN), and Creatinine Assay Kit (Abcam; #ab65340). All experimental procedures were conducted according to the respective manufacturer’s protocols.
Lung, heart, liver, and kidney tissues were collected from various groups of mice, including ARDS, ARDS + MTOB, ARDS + NSC95397, ARDS + C646, ARDS + A-485, ARDS + TPCA1, ARDS + BOT64, and ARDS + PNSC928. The tissues were fixed in 10% neutral-buffered formalin (Sigma-Aldrich; #HT501128) for 48 h, then dehydrated through a graded ethanol series (70%, 80%, 90%, and 100%, for 30 min each). The dehydrated tissues were embedded in paraffin blocks and allowed to solidify. The paraffin blocks were sectioned at 5 μm, with the sections floated on a water bath to remove wrinkles before being transferred onto glass slides. The slides were dried, dewaxed with xylene, and rehydrated through a reverse ethanol series (100%, 90%, 80%, and 70%, for 30 min each), followed by a final rinse in distilled water. The rehydrated sections were stained using the Hematoxylin and Eosin Kit (Abcam; #ab245880) according to the manufacturer’s guidelines. After staining, the sections were dehydrated through a graded ethanol series (70%, 80%, 90%, and 100%, for 30 min each), then cleared with xylene. The sections were mounted with a mounting medium (Abcam; #ab64230) and imaged using a Nikon light microscope for tissue morphology.
C57BL/6 mice were administrated with MTOB (400 and 800 mg/kg), NSC95397 (2 and 4 mg/kg), C646 (5 and 10 mg/kg), A-485 (40 and 80 mg/kg), TPCA1 (10 and 20 mg/kg), BOT64 (30 and 60 mg/kg) for a duration of 6 days (n = 10 for each group). (A-F) Body weights were measured every two days. (G-K) Serum concentrations of different groups of mice. (G) IL-1β, (H) IL-6, (I) IL-15, (J) IL-18, and (K) TNF-α. *P < 0.05
C57BL/6 mice were administrated with MTOB (400 and 800 mg/kg), NSC95397 (2 and 4 mg/kg), C646 (5 and 10 mg/kg), A-485 (40 and 80 mg/kg), TPCA1 (10 and 20 mg/kg), and BOT64 (30 and 60 mg/kg) for a duration of 6 days (n=10 for each group). (A) Serum concentration of IFN-γ in different groups of mice. (B) Serum BUN concentration. (C) Activities of ALT, AST, and ALP in serum. (D) Serum creatinine concentration. (E) Representative H&E staining images of lung, liver, kidney, and heart from the following groups of mice: Control, MTOB (800 mg/kg), NSC95397 (4 mg/kg), C646 (10 mg/kg), A-485 (80 mg/kg), TPCA1 (20 mg/kg), and BOT64 (60 mg/kg). Bars=100 μm. For the significant difference analysis in B-D, all drug-treated groups were compared with the Control group of mice. *P<0.05; **P<0.01; ***P<0.001.
[…] (A) Serum ALT activity. (B) Serum AST activity. (C) Serum ALP activity. (D) Serum BUN concentration. (E) Serum creatinine concentration. (F) Body weights were recorded every two days. (G) Representative H&E staining images of lung, liver, kidney, and heart. Bars=100 μm.

[1] = PNSC928 0, 5, 10, and 20 mg/kg at two-day intervals for 6 days

SMILES | Body weight | also measured
CNC(=O)Nc1ccc2c(c1)CC[C@@]21OC(=O)N(CC(=O)N(Cc2ccc(F)cc2)[C@@H](C)C(F)(F)F)C1=O [A-485] | significant decrease in body weight | 
CC1(C)CC(=O)c2sc(=Nc3ccccc3)oc2C1 [BOT64] | significant decrease in body weight | 
CC1=NN(c2ccc(C(=O)O)cc2)C(=O)/C1=C\c1ccc(-c2cc(C)c(C)cc2[N+](=O)[O-])o1 [C646] | significant decrease in body weight | 
CSCCC(=O)C(=O)O [MTOB] | significant decrease in body weight | 
O=C1C(SCCO)=C(SCCO)C(=O)c2ccccc21 [NSC95397] | significant decrease in body weight | 
CC(=CCCC1=CCC(C2COC(=O)C2)OC1O)CCC1=C(C)CCCC1(C)C (stereo not shown) [PNSC928] |  | Activities and levels of ALT, AST, ALP, BUN, and creatinine [1]: no discernible alterations; Histological examination of lung, heart, liver, and kidney [1]: no conspicuous damage; Mouse body weights [1]: did not affect mouse body weights; Behavioral activities (feeding, balance ability, sleeping patterns) (PNSC928 0, 5, 10, and 20 mg/kg at two-day intervals for 6 days, data not shown): did not affect
NC(=O)Nc1sc(-c2ccc(F)cc2)cc1C(N)=O [TPCA1] | significant decrease in body weight | 

— publication PMC11191317, “PNSC928, a plant-derived compound, specifically disrupts CtBP2-p300 interaction and reduces inflammation in mice with acute respiratory distress syndrome” (Biology Direct, 2024)
